This is an account of results in patent publication US20180057467A1, “NOVEL TRIAZOLE DERIVATIVES” (BAYER CROPSCIENCE AKTIENGESELLSCHAFT, priority 2015, published 2018).

A short description of one data set: LogP by HPLC on reversed phase columns (EEC directive 79/831 Annex V.A8). It counts as physicochemical. The settings on record: method [a]: LC-UV, acidic range, 0.1% formic acid in water and acetonitrile as eluent. Here is the method: [table] If more than one Log P value is available within the same method, all the values are given and separated by “+”. […] Lambda-max-values were determined using UV-spectra from 200 nm to 400 nm and the peak values of the chromatographic signals.
For `OC(Cn1cncn1)(c1ccc(F)cc1F)C1(Oc2cc(F)c(F)c(F)c2)CC1` (racemic) [Example I-05], the lipophilicity (LogP) was 3.44^[a]. For `OC(Cn1cncn1)(c1ccc(F)cc1F)C1(Oc2c(Cl)ccc(Cl)c2Cl)CC1` (racemic) [Example I-06], the log partition coefficient (LogP) is 4.19^[a].

On to `OC(Cn1cncn1)(c1ccc(F)cc1F)C1(Oc2c(Cl)cc(Cl)cc2Cl)CC1` (racemic) [Example I-07], for which the lipophilicity (LogP) is 4.49^[a]. On the same count and under the same terms, to `OC(Cn1cncn1)(c1ccc(F)cc1F)C1(Oc2c(F)ccc(Cl)c2F)CC1` (racemic) [Example I-08] belongs 3.39^[a]; to `OC(Cn1cncn1)(c1ccc(F)cc1F)C1(Oc2c(Cl)cc(OC(F)(F)F)cc2Cl)CC1` (racemic) [Example I-09], 4.62^[a].

With `OC(Cn1cncn1)(c1ccc(F)cc1F)C1(Oc2c(Cl)cc(C(F)(F)F)cc2Cl)CC1` (racemic) [Example I-10], the LogP is 4.46^[a]. As to `OC(Cn1cncn1)(c1ccc(F)cc1F)C1(Oc2c(Cl)cc(SC(F)(F)F)cc2Cl)CC1` (racemic) [Example I-11], the LogP was 4.97^[a]. On the same count and under the same terms, to `OC(Cn1cncn1)(c1ccc(F)cc1F)C1(Oc2c(Cl)cc(Br)cc2Cl)CC1` (racemic) [Example I-12] belongs 4.62^[a]. For the compound `OC(Cn1cncn1)(c1ccc(F)cc1F)C1(Oc2c(F)ccc(F)c2F)CC1` (racemic) [Example I-13], the lipophilicity (LogP) was 3.14^[a].

In the case of `COC(Cn1cncn1)(c1ccc(F)cc1F)C1(Oc2c(F)ccc(F)c2F)CC1` (racemic) [Example I-14], the LogP is 3.50^[a].

Regarding `COC(Cn1cncn1)(c1ccc(F)cc1F)C1(Oc2c(Cl)ccc(Cl)c2Cl)CC1` (racemic) [Example I-15], the LogP is 4.46^[a].

Regarding `OC(Cn1cncn1)(c1ccc(F)cc1F)C1(Oc2c(Cl)cc(F)cc2Cl)CC1` (racemic) [Example I-16], the LogP is 3.94^[a]. Same read-out and setting: to `COC(Cn1cncn1)(c1ccc(F)cc1F)C1(Oc2c(F)ccc(Cl)c2F)CC1` (racemic) [Example I-17] belongs 3.85^[a]; to `COC(Cn1cncn1)(c1ccc(F)cc1F)C1(Oc2c(Cl)cc(OC(F)(F)F)cc2Cl)CC1` (racemic) [Example I-18], 4.87^[a]; to `OC(Cn1cncn1)(c1ccc(Cl)cc1F)C1(Oc2c(F)cc(Cl)cc2F)CC1` (racemic) [Example I-23], 4.01^[a]. In the case of `OC(Cn1cncn1)(c1ccc(Cl)cc1F)C1(Oc2c(F)cc(F)cc2F)CC1` (racemic) [Example I-24], the lipophilicity (LogP) was 3.51^[a]. `COC(Cn1cncn1)(c1ccc(Cl)cc1F)C1(Oc2c(F)cc(Cl)cc2F)CC1` (racemic) [Example I-25]: the LogP is 4.41^[a]. Regarding `COC(Cn1cncn1)(c1ccc(Cl)cc1F)C1(Oc2c(F)cc(F)cc2F)CC1` (racemic) [Example I-26], the log partition coefficient (LogP) was 3.97^[a]. For `OC(Cn1cncn1)(c1ccc(F)cc1F)C1(Oc2ccc(F)c(F)c2F)CC1` (racemic) [Example I-27], the log partition coefficient (LogP) is 3.30^[a]. Consider `OC(Cn1cncn1)(c1ccc(F)cc1F)C1(Oc2cc(F)c(F)cc2F)CC1` (racemic) [Example I-28], for which the LogP is 3.17^[a]. On the same count and under the same terms, to `OC(Cn1cncn1)(c1ccc(F)cc1F)C1(Oc2c(F)ccc(F)c2Cl)CC1` (racemic) [Example I-29] belongs 3.42^[a]. Still for that read-out and setting: to `OC(Cn1cncn1)(c1ccc(F)cc1F)C1(Oc2cc(F)c(Br)c(F)c2)CC1` (racemic) [Example I-30] belongs 3.85^[a]; to `Fc1ccc(C2(C3(Oc4c(F)cc(Cl)cc4F)CC3)CO2)c(F)c1` (racemic) [Example V-02], 4.59^[a]. Compound `Fc1ccc(C2(C3(Oc4c(F)cc(Br)cc4F)CC3)CO2)c(F)c1` (racemic) [Example V-03] gave a log partition coefficient (LogP) of 4.86. Still for that read-out and setting: the value for `Fc1ccc(C2(C3(Oc4cc(F)c(F)c(F)c4)CC3)CO2)c(F)c1` (racemic) [Example V-04] was 4.64^[a].

The same data set, now with this note: method [b]: LC-UV, neutral range, 0.001 molar ammonium acetate solution in water and acetonitrile as eluent.
The compound `Fc1ccc(C2(C3(Oc4c(F)cc(Br)cc4F)CC3)CO2)c(F)c1` (racemic) [Example V-03] came in with a log partition coefficient (LogP) of 4.87.

What is called LogP is the decadic logarithm of the partition coefficient of the neutral form, usually between octanol and water. A high value points to higher lipophilicity.
